Patent publication US8268996B2, “Compounds and compositions as cathepsin S inhibitors” (IRM LLC, priority 2004, dated 2012)

Tests used:
Assay type in all cases: biochemical
Cathepsin L = Cathepsin L (Homo sapiens, UniProt P07711); experiment: Cathepsin L Assay; settings: for Ki: pH5.5, 20 minutes incubation at room temperature, substrate 20 μM, fluorescence
Method: (§1) Kinetic measurements are performed in a total reaction volume of 30 μl in 384-well microtiter plates. […] Control reactions in the absence of inhibitor are performed in replicates of 24. The reactions are initiated by adding the substrate, acetyl-histidine-lysine-phenylalanine-lysine-amino […] coumarin, to a final concentration of 20 μM. The rate of substrate hydrolysis is measured by monitoring the increase in fluorescence at an excitation wavelength of 380 nm and an emission wavelength of 450 nm that results from cleavage of the aniline bond in the substrate by the enzyme. The apparent inhibition constants for the compounds are determined from the enzyme progress curves and are then used to calculate the inhibition constants for competitive inhibitors.

Cathepsin S = Cathepsin S (Homo sapiens, UniProt P25774); experiment: Cathepsin S Assay
Cathepsin S, sequence (P25774 115-331): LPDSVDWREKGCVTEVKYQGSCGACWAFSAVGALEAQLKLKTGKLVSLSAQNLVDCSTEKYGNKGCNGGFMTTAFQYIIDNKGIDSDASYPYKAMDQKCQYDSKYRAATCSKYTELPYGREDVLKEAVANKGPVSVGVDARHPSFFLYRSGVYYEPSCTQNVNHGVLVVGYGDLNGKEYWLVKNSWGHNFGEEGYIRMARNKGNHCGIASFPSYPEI
Method: as §1, with “acetyl-histidine-proline-valine-lysine-amino” for “acetyl-histidine-lysine-phenylalanine-lysine-amino”, “50” for “20”

Cathepsin K = biological target: T1, Cathepsin K (Homo sapiens, UniProt P43235); experiment: Cathepsin K Assay; settings: for Ki: pH5.5, 20 minutes incubation at room temperature, substrate 40 μM, fluorescence
T1 sequence (P43235 115-329): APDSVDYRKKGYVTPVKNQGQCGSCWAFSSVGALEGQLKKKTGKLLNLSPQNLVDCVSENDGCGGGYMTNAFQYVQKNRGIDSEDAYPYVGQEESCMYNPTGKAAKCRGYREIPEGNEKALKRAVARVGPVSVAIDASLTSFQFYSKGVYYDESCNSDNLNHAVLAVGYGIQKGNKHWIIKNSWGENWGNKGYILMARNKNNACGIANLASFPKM
Method: as §1, with “acetyl-lysine-histidine-proline-lysine-amino” for “acetyl-histidine-lysine-phenylalanine-lysine-amino”, “40” for “20”

Cathepsin B = Cathepsin B (Homo sapiens, UniProt P07858); experiment: Cathepsin B Assay; settings: for Ki: pH5.5, 20 minutes incubation at room temperature, substrate 10 μM, fluorescence
Method: as §1, with “acetyl-histidine-proline-valine-lysine-amino” for “acetyl-histidine-lysine-phenylalanine-lysine-amino”, “10” for “20”

[1] = ratio of isozyme inhibition constant to cathepsin S inhibition constant

Cathepsin L, sequence (P07711 114-333, species assumed): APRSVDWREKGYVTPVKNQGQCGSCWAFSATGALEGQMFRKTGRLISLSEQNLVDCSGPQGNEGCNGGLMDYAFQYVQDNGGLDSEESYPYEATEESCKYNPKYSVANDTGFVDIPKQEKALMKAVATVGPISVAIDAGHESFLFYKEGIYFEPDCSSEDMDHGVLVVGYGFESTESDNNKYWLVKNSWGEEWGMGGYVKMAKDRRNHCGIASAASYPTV

Row | Ki (Cathepsin L) | Ki (Cathepsin S) | Ki (Cathepsin K) | Ki (Cathepsin B) | Structure (SMILES) | selectivity for cathepsin S over cathepsin L (Cathepsin L; [1]) | IC50 (Cathepsin S) | selectivity for cathepsin S over cathepsin K (Cathepsin K; [1]) | selectivity for cathepsin S over cathepsin B (Cathepsin B; [1])
1 | > 100000 nM | 488 nM | > 100000 nM | > 100000 nM | C[C@H](NC(=O)O[C@@H](CS(=O)(=O)Cc1ccccc1)C(=O)N1CCOCC1)C(=O)c1nc2ccccc2o1 [Example 2, 2-phenylmethanesulfonyl-(1R)-(morpholine-4-carbonyl)ethyl 2-(benzoxazol-2-yl)-(1S)-methyl-2-oxo-ethyl carbamate] |  |  |  | 
2 | > 100000 nM | 892 nM | > 30000 nM | > 100000 nM | O=C(N[C@H]1COCC1=O)O[C@@H](CC1CCCCC1)C(=O)N1CCOCC1 [Example 5, 2-cyclohexyl-(1S)-(morpholine-4-carbonyl)ethyl 4-oxo-tetrahydro-furan-(3S)-yl carbamate] |  |  |  | 
3 | > 22600 nM | 31.4 nM | 13800 nM | > 30000 nM | N#C[C@H](COCc1ccccc1Cl)NC(=O)O[C@@H](CC1CCCCC1)C(=O)N1CCOCC1 [Example 8, (1S)-cyclohexylmethyl-2-morpholin-4-yl-2-oxo-ethyl 2-(2-chloro-benzyloxy)-(1R)-cyano-ethyl carbamate] |  |  |  | 
4 | 2030 nM | 0.8 nM | 211 nM | 5700 nM | CCC[C@H](NC(=O)O[C@@H](CC1CCCCC1)C(=O)N1CCCC1)C(=O)c1nc2ccccc2o1 [Example 27, (1S)-cyclohexylmethyl-2-oxo-2-(pyrrolidin-1-yl)-ethyl(1S)-(benzoxazole-2-carbonyl)-butyl carbamate] |  |  |  | 
5 | 1310 nM | 0.4 nM | 260 nM | 5220 nM | CC[C@H](NC(=O)O[C@@H](CC1CCCCC1)C(=O)N1CCOCC1)C(=O)c1nc2cccnc2o1 [Example 39, 2-cyclohexyl-(1S)-(morpholine-4-carbonyl)ethyl(1S)-(oxazolo[5,4-b]pyridine-2-carbonyl)-propyl carbamate] |  |  |  | 
6 | 15300 nM | 2.1 nM | 2130 nM | > 30000 nM | O=C(N[C@H](C(=O)c1nc2ccc(F)cc2o1)C1CC1)O[C@@H](CC1CCCCC1)C(=O)N1CCOCC1 [Example 40, 2-cyclohexyl-(1S)-(morpholine-4-carbonyl)ethyl(1S)-cyclopropyl-2-(6-fluoro-benzoxazol-2-yl)-2-oxo-ethyl carbamate] |  |  |  | 
7 | 9500 nM | 4.6 nM | 278 nM | 16700 nM | CC[C@H](NC(=O)O[C@H](C(=O)N1CCOCC1)C1CCCCC1)C(=O)c1nc2ccc(F)cc2o1 [Example 42, (1S)-cyclohexyl-1-(morpholine-4-carbonyl)methyl(1S)-(6-fluoro-benzoxazole-2-carbonyl)-propyl carbamate] |  |  |  | 
8 | 4650 nM | 3.6 nM | 250 nM | 16000 nM | CC[C@H](NC(=O)O[C@@H](CC1CCCCC1)C(=O)N(C)C)C(=O)c1nc2ccccc2o1 [Example 43, 2-cyclohexyl-(1S)-dimethylcarbamoyl-ethyl(1S)-(benzoxazole-2-carbonyl)-propyl carbamate] |  |  |  | 
9 | 3610 nM | 0.5 nM | 483 nM | 9700 nM | CCC[C@H](NC(=O)O[C@@H](CC1CCCCC1)C(=O)N1CCOCC1)C(=O)c1nc2ccc(F)cc2o1 [Example 44, 2-cyclohexyl-(1S)-(morpholine-4-carbonyl)ethyl(1S)-(6-fluoro-benzoxazole-2-carbonyl)-butyl carbamate] |  |  |  | 
10 | 2210 nM | 1.6 nM | 113 nM | 4040 nM | CCC[C@H](NC(=O)O[C@H](C(=O)N1CCOCC1)C1CCCCC1)C(=O)c1nc2ccccc2o1 [Example 46, (1S)-cyclohexyl-1-(morpholine-4-carbonyl)methyl(1S)-(benzoxazole-2-carbonyl)-butyl carbamate] |  |  |  | 
11 | 2170 nM | 1.1 nM | 205 nM | > 30000 nM | CC[C@H](NC(=O)O[C@@H](CC1CCCCC1)C(=O)N1CCOCC1)C(=O)c1nc2ccc(C)cc2o1 [Example 47, 2-cyclohexyl-(1S)-(morpholine-4-carbonyl)ethyl(1S)-(6-methyl-benzoxazole-2-carbonyl)-propyl carbamate] |  |  |  | 
12 | 2750 nM | 2.8 nM | 481 nM | 1880 nM | CC[C@H](NC(=O)O[C@@H](CC1CCCCC1)C(=O)N1CCOCC1)C(=O)c1nc2cc(Cl)ccc2o1 [Example 48, 2-cyclohexyl-(1S)-(morpholine-4-carbonyl)ethyl(1S)-(5-chloro-benzoxazole-2-carbonyl)-propyl carbamate] |  |  |  | 
13 | 2310 nM | 1.8 nM | 482 nM | 4360 nM | CCC[C@H](NC(=O)O[C@@H](CC1CCCCC1)C(=O)N1CCOCC1)C(=O)c1nc2cc(F)ccc2o1 [Example 54, 2-cyclohexyl-(1S)-(morpholine-4-carbonyl)ethyl(1S)-(5-fluoro-benzoxazole-2-carbonyl)-butyl carbamate] |  |  |  | 
14 | 3970 nM | 0.9 nM | 188 nM | 9090 nM | CC[C@H](NC(=O)O[C@@H](CC1CCCCC1)C(=O)N1CCCC1)C(=O)c1nc2ccc(F)cc2o1 [Example 55, (1S)-cyclohexylmethyl-2-oxo-2-(pyrrolidin-1-yl)-ethyl(1S)-(6-fluoro-benzoxazole-2-carbonyl)-propyl carbamate] |  |  |  | 

Row | Structure (SMILES) | Ki (Cathepsin L) | Ki (Cathepsin S) | Ki (Cathepsin K) | Ki (Cathepsin B) | selectivity for cathepsin S over cathepsin L (Cathepsin L; [1]) | IC50 (Cathepsin S) | selectivity for cathepsin S over cathepsin K (Cathepsin K; [1]) | selectivity for cathepsin S over cathepsin B (Cathepsin B; [1])
15 | O=C(N[C@H](C(=O)c1nc2ccccc2o1)C1CC1)O[C@@H](CC1CCCCC1)C(=O)N1CCOCC1 [Example 1, 2-cyclohexyl-(1S)-(morpholine-4-carbonyl)ethyl 2-(benzooxazol-2-yl)-(1S)-cyclopropyl-2-oxo-ethyl carbamate] | > 23300 nM | 6.6 nM | 5160 nM | > 47500 nM | at least 100 fold | 6.6 nM | at least 100 fold | at least 100 fold
